Key:
HIV-IIIb = test: Test A: Antiviral Assay in MT4 Cells; assay type: cell-based, HIV-1; conditions: Human immunodeficiency virus 1, MT4, 120 h, read-out: % Inh @ 2 uM (percent inhibition of virus-induced cell killing); 2 uM test compound; MT-4 cells infected with HIV-IIIb, 5 days, CellTiter-Glo
Description: (§1) Test A: Antiviral Assay in MT4 Cells For the antiviral assay, 40 μL of 1× test concentration of 3-fold serially diluted compound in culture medium with 10% FBS was added to each well of a 384-well plate (10 concentrations) in quadruplicate. MT-4 cells were next mixed with HIV-IIIb at an m.o.i of 0.003 for 1 hour, after which time 35 μL of virus/cell mixture (2000 cells) was immediately added to each well containing 40 μL of diluted compound. The plates were then incubated at 37° C. for 5 days. After 5 days of incubation, 25 μl of 2× concentrated CellTiter-Glo™ Reagent (catalog #G7571, Promega Biosciences, Inc., Madison, Wis.) was added to each well containing MT-4 cells. Cell lysis was carried out by incubating at room temperature for 10 min and then chemiluminescence was read. […] Accordingly, the compounds disclosed herein may be useful for treating an HIV virus infection, treating AIDS or for delaying the onset of AIDS or ARC symptoms.

[1] = Test B: Cytotoxicity Assay (uninfected MT-4 cells); assay type: cell-based; conditions: human, same protocol as Test A, read-out: MT4-CC50
Description: as §1, with “For” for “Test A: Antiviral Assay in MT4 Cells For”, “Test B: Cytotoxicity Assay Compound cytotoxicity and” for “Accordingly,”, “corresponding CC50 values were determined using” for “compounds disclosed herein may be useful for treating an HIV virus infection, treating AIDS or for delaying”, “same protocol as described in the antiviral assay (Test A) except that uninfected cells were used.” for “onset of AIDS or ARC symptoms.”

[2] = from C=CCc1c(CC(=O)N[C@@H](Cc2cc(F)cc(Br)c2)C(=O)OC)c2ccccc2n1C(=O)OC(C)(C)C; cc_pd bond; Pd(PPh3)4; acetonitrile; 4.3 mM; 82.0 °C; 6.0 h

Row | SMILES | inhibition at 2 µM (HIV-IIIb) [%] | CC50 at 5 days [1] [µM] | ring closure, yield of all isomers [2] [%]
1 | CN(C(=O)N1Cc2cc(F)cc(c2)CCCc2[nH]c3ccccc3c2CC(=O)N1)c1ccc(Cl)cc1 [Example 31, N-(4-chlorophenyl)-8-fluoro-N-methyl-2-oxo-2,3,11,12,13,14-hexahydro-1H-6,10-(metheno)[1,2]diazacyclopentadecino[6,5-b]indole-4(5H)-carboxamide] | 2.4 | 21.7 | –
2 | COc1ccc(N(C)C(=O)[C@@H]2Cc3cccc(c3)CCS(=O)(=O)Cc3[nH]c4ccccc4c3CC(=O)N2)cc1 [Example 8, (11S)—N-(4-methoxyphenyl)-N-methyl-13-oxo-3,4,10,11,12,13,14,19-octahydro-1H-9,5-(metheno)[1,7]thiazacyclohexadecino[3,4-b]indole-11-carboxamide 2,2-dioxide] | 0.6 | > 53 | –
3 | CN(C(=O)[C@@H]1Cc2cccc(c2)CCCc2[nH]c3ccc(=O)[nH]c3c2CC(=O)N1)c1ccc(Cl)cc1 [Example 30, (15S)—N-(4-chlorophenyl)-N-methyl-2,17-dioxo-1,5,6,7,8,14,15,16,17,18-decahydro-2H-13,9-(metheno)pyrido[2′,3′:4,5]pyrrolo[3,2-d]azacyclopentadecine-15-carboxamide] | 0 | 24.4 | –
4 | COc1ccc(N(C)C(=O)[C@@H]2Cc3cccc(c3)S(=O)(=O)Cc3[nH]c4ccccc4c3CC(=O)N2)cc1 [Example 19, (9S)—N-(4-methoxyphenyl)-N-methyl-11-oxo-8,9,10,11,12,17-hexahydro-1H-7,3-(metheno)[1,7]thiazacyclotetradecino[3,4-b]indole-9-carboxamide 2,2-dioxide] | 80.3 | > 53 | –
5 | COc1ccc(N(C)C(=O)[C@@H]2Cc3cccc(c3)CS(=O)(=O)c3[nH]c4ccccc4c3CC(=O)N2)cc1 [Example 21, (9S)—N-(4-methoxyphenyl)-N-methyl-11-oxo-8,9,10,11,12,17-hexahydro-7,3-(metheno)[1,6]thiazacyclotetradecino[2,3-b]indole-9(2H)-carboxamide 1,1-dioxide] | 11.8 | > 53 | –
6 | COc1ccc(N(C)C(=O)[C@@H]2Cc3cccc(c3)C/C=C\c3[nH]c4ccc(F)cc4c3CC(=O)N2)cc1 [Example 14] | 95.6 | 44.3 | –
7 | COC(=O)[C@@H]1Cc2cc(F)cc(c2)/C=C\Cc2c(c3ccccc3n2C(=O)OC(C)(C)C)CC(=O)N1 | – | – | 49.9
8 | COc1ccc(N(C)C(=O)[C@@H]2Cc3cccc(c3)CC=Cc3[nH]c4ccccc4c3CC(=O)N2)cc1 (stereo in doubt) [Example 11, (4S,12Z)—N-(4-methoxyphenyl)-N-methyl-2-oxo-2,3,4,5,11,14-hexahydro-1H-6,10-(metheno)azacyclopentadecino[5,4-b]indole-4-carboxamide] | 102 | 23.9 | –
9 | COc1ccc(N(C)C(=O)[C@@H]2Cc3cccc(c3)CCSCc3[nH]c4ccc(F)cc4c3CC(=O)N2)cc1 [Example 7] | 26.3 | > 53 | –
10 | CN(Cc1ccccc1)C(=O)[C@@H]1Cc2cc(F)cc(c2)CCCc2[nH]c3ccccc3c2CC(=O)N1 [Example 25, (4S)—N-benzyl-8-fluoro-N-methyl-2-oxo-2,3,4,5,11,12,13,14-octahydro-1H-6,10-(metheno)azacyclopentadecino[5,4-b]indole-4-carboxamide] | 84.9 | 52.3 | –
11 | COc1ccc(N(C)C(=O)[C@@H]2Cc3cc(F)cc(c3)C/C=C/c3[nH]c4ccccc4c3CC(=O)N2)cc1 [Example 27, (4S,12E)-8-fluoro-N-(4-methoxyphenyl)-N-methyl-2-oxo-2,3,4,5,11,14-hexahydro-1H-6,10-(metheno)azacyclopentadecino[5,4-b]indole-4-carboxamide] | 92.5 | 18.9 | –
12 | COc1ccc(N(C)C(=O)[C@@H]2Cc3cccc(c3)CCS(=O)(=O)Cc3[nH]c4ccc(F)cc4c3CC(=O)N2)cc1 [Example 10] | 1.8 | > 53 | –
13 | COc1ccc(N(C)C(=O)[C@@H]2Cc3cccc(c3)CCCCc3[nH]c4ccccc4c3CC(=O)N2)cc1 [Example 4] | 79.6 | > 48.7 | –
14 | COc1ccc(N(C)C(=O)[C@@H]2Cc3cccc(c3)CCCc3[nH]c4ccc(O)cc4c3CC(=O)N2)cc1 [Example 2] | 102 | > 46.4 | –
15 | COc1ccc(N(C)C(=O)[C@@H]2Cc3cc(F)cc(c3)/C=C\Cc3[nH]c4ccccc4c3CC(=O)N2)cc1 [Example 26, (4S,11Z)-8-fluoro-N-(4-methoxyphenyl)-N-methyl-2-oxo-2,3,4,5,13,14-hexahydro-1H-6,10-(metheno)azacyclopentadecino[5,4-b]indole-4-carboxamide] | 79.9 | 34.8 | –
16 | COc1ccc(N(C)C(=O)[C@@H]2Cc3cccc(c3)C/C=C/c3[nH]c4ccc(F)cc4c3CC(=O)N2)cc1 [Example 12] | 85.5 | 31.8 | –
17 | COc1ccc(N(C)C(=O)[C@@H]2Cc3cccc(c3)CS(=O)(=O)Cc3[nH]c4ccccc4c3CC(=O)N2)cc1 [Example 16, (10S)—N-(4-methoxyphenyl)-N-methyl-12-oxo-9,10,11,12,13,18-hexahydro-1H-8,4-(metheno)[1,7]thiazacyclopentadecino[3,4-b]indole-10(3H)-carboxamide 2,2-dioxide] | 67.8 | > 53 | –
18 | COc1ccc2[nH]c3c(c2n1)CC(=O)N[C@H](C(=O)N(C)c1ccc(Cl)cc1)Cc1cccc(c1)CC3 [Example 28, (14S)—N-(4-chlorophenyl)-2-methoxy-N-methyl-16-oxo-5,6,7,13,14,15,16,17-octahydro-12,8-(metheno)pyrido[2′,3′:4,5]pyrrolo[3,2-d]azacyclotetradecine-14-carboxamide] | 63.9 | 18.3 | –
19 | COc1ccc(N(C)C(=O)[C@@H]2Cc3cccc(c3)CCSCc3[nH]c4ccc(O)cc4c3CC(=O)N2)cc1 [Example 6] | 94.3 | 49.2 | –
20 | CN(C(=O)[C@@H]1Cc2cccc(c2)CCc2[nH]c3ccc(=O)[nH]c3c2CC(=O)N1)c1ccc(Cl)cc1 [Example 29, (14S)—N-(4-chlorophenyl)-N-methyl-2,16-dioxo-1,2,5,6,7,13,14,15,16,17-decahydro-12,8-(metheno)pyrido[2′,3′:4,5]pyrrolo[3,2-d]azacyclotetradecine-14-carboxamide] | 87.6 | > 53 | –
21 | COc1ccc(N(C)C(=O)[C@@H]2Cc3cccc(c3)C/C=C\c3[nH]c4ccccc4c3CC(=O)N2)cc1 [Example 13] | 99 | > 53 | –
22 | COc1ccc(N(C)C(=O)[C@@H]2Cc3cccc(c3)CCS(=O)(=O)Cc3[nH]c4ccc(O)cc4c3CC(=O)N2)cc1 [Example 9] | 0.7 | > 53 | –
23 | COc1ccc(N(C)C(=O)[C@@H]2Cc3cccc(c3)/C=C\c3[nH]c4ccccc4c3CC(=O)N2)cc1 [Example 17, (4S,11Z)—N-(4-methoxyphenyl)-N-methyl-2-oxo-1,2,3,4,5,13-hexahydro-6,10-(metheno)azacyclotetradecino[5,4-b]indole-4-carboxamide] | 4.7 | > 53 | –
24 | COc1ccc(N(C)C(=O)[C@@H]2Cc3cccc(c3)CCc3[nH]c4ccccc4c3CC(=O)N2)cc1 [Example 3] | 99.2 | > 53 | –
25 | COc1ccc(N(C)C(=O)[C@@H]2Cc3cc(F)cc(c3)CCCc3[nH]c4ccccc4c3CC(=O)N2)cc1 [Example 23K, (4S)-8-fluoro-N-(4-methoxyphenyl)-N-methyl-2-oxo-2,3,4,5,11,12,13,14-octahydro-1H-6,10-(metheno)azacyclopentadecino[5,4-b]indole-4-carboxamide] | 94 | > 50.3 | –
26 | CN(C(=O)[C@@H]1Cc2cc(F)cc(c2)CCCc2[nH]c3ccccc3c2CC(=O)N1)c1ccc(Cl)cc1 [Example 24, (4S)—N-(4-chlorophenyl)-8-fluoro-N-methyl-2-oxo-2,3,4,5,11,12,13,14-octahydro-1H-6,10-(metheno)azacyclopentadecino[5,4-b]indole-4-carboxamide] | 100 | 47.1 | –
27 | COc1ccc(N(C)C(=O)[C@@H]2Cc3cccc(c3)/C=C/Cc3[nH]c4ccccc4c3CC(=O)N2)cc1 [Example 22, (4S,11E)-N-(4-methoxyphenyl)-N-methyl-2-oxo-2,3,4,5,13,14-hexahydro-1H-6,10-(metheno)azacyclopentadecino[5,4-b]indole-4-carboxamide] | 64.5 | > 52.6 | –

Reference: patent US9012441B2, “Therapeutic compounds” (Gilead Sciences, Inc., priority 2013, dated 2015)
